From US10420758B2, “Indolinyl-sulfonamide inhibitors of tankyrase and methods of use thereof” (The Board of Regents of the University of Texas System, priority 2015, dated 2019)

System: Dvl2
Assay: Ligand-dependent phosphorylation of Dvl2
Type: cell-based, human
Conditions: HeLa cells, FIG. 4E
From the text: FIGS. 4A-4F show Tnks inhibitors induce telomeric stress in human cells independently of Wnt/β-catenin pathway inhibition. (FIG. 4A) Porcn inhibitors afford a Tnks-independent approach to disrupting Wnt/β-catenin signaling. Chemicals targeting the Wnt acyltransferase Porcn abrogate Wnt palmitoylation which in turn results in loss of activity of the Frizzled (Fzd) family of Wnt receptors. Fzd receptors directly induce activation of the cytoplasmic signaling molecule Dishevelled (Dvl) in a ligand-dependent manner, which in turn results in activation of β-catenin and transcription mediated by the TCF family of DNA binding proteins. IWP-2 and the clinical candidate LGK-974 represent two structurally distinct Porcn inhibitors. (FIG. 4B) Tnks but not Porcn inhibitors induce DNA damage at telomeres. The appearance of co-localized Terf2 and pH2A.X (an indicator of DNA damage at the telomere ends; Telomere Induced Foci or TIFs) was scored using indirect immunofluorescence in Hela cells (expressing wild-type Apc protein). (FIG. 4C) Quantification of results represented in “B”. Cells with >5 TIFs were scored as positive for telomeric damage (left bars). Mean total phosphorylated H2A.X (γ H2A.X) was used to measure general DNA damage responses (right bars). […] Digital droplet-based telomerase extension analysis of genomic DNA isolated from HeLa cells treated for 24 hrs with indicated compounds. […]

Row | SMILES | ligand-dependent phosphorylation of Dvl2
1 | Cc1cc(-c2ncc(CC(=O)Nc3ccc(-c4cnccn4)cn3)cc2C)ccn1 [LGK-974] | block ligand-dependent phosphorylation of Dvl2
2 | Cc1ccc2nc(NC(=O)CSc3nc4c(c(=O)n3-c3ccccc3)SCC4)sc2c1 [IWP-2] | block ligand-dependent phosphorylation of Dvl2
